The subject of one experiment is MethA or CT26 cells. As to the kind of experiment: MethA or CT26 tumor model. The following applies: BALB/c mouse, MethA (SPD 1 mg/kg) or CT26 (SPD 4 mg/kg), with PD-L1 antibody 2 mg/kg. In kind it is in vivo, BALB/c mice. As to the method:
(§1) FIG. 2-2 a-b) MethA or CT26 cells were intradermally inoculated into BALB/c mice. Ten days after inoculation, PD-L1 antibody (2 mg/kg), PD-L1 antibody+SPD (1 mg/kg for Meth A, 4 mg/kg for CT26) or SPD alone was administered. c) LLC cells were intradermally inoculated into C57BL/6 mice. Ten days after inoculation, mice were treated in the same manner as described in a-b) above. SPD was administered at 4 mg/kg. d) MC38 cells were inoculated into C57BL/6 Rag2^−/− mice. Ten days after inoculation, mice were treated in the same manner as described in a-b) above. SPD was administered at 5 mg/kg. Tumor growth curve and survival curve are shown.

The next experiment has as its system MC38 cells. Put plainly: MC38 mouse therapy model, tumor growth and survival. In kind it is in vivo, C57BL/6 mice. The procedure: FIG. 1-1 a) CD8^+ T cells or CD3^+ T cells were isolated from mice, and 2×10^5 cells were stimulated with CD3/CD28 beads in 96-well U plates. After 24 hours and 48 hours, cells and culture supernatant were collected, followed by measurement of spermidine (SPD) concentration by mass spectrometry. […] Ten days after inoculation, PD-L1 antibody (2 mg/kg), PD-L1 antibody+SPD (2 mg/kg), or SPD alone was administered. Subsequently, PD-L1 antibody was administered 4 times at a regular interval of 5 days, and SPD was administered 8 times at a regular interval of 3 days. Tumor growth curve and survival curve are shown. c) Draining lymph nodes (DLNs) of mice were isolated 13 days after tumor inoculation, and stained with antibodies to CD8, CD44 and CD62L. The number of cells in draining lymph node (cells/DLN) in each treatment group is shown at the left side. After being gated, CD8^+ T cells were fractionated with CD44 and CD62L into P1 to P4 cell populations. Percentages and cell numbers of P1 to P4 in each treatment group are shown. d) Tumor was isolated 13 days after tumor inoculation and treated with collagenase. Percentages and numbers per mg tumor of tumor-infiltrating CD8^+ CD45.2^+ cells are shown. For statistical analysis, ANOVA was used. * p<0.05, ** p<0.01, *** p<0.001, **** p<0.0001.
FIG. 8 MC38 cells (5×10^5) were intradermally inoculated into C57BL/6 mice. Ten days after inoculation, PD-L1 antibody (2 mg/kg), PD-L1 antibody+SPD (2 mg/kg) or PD-L1 antibody+SPM (6 mg/kg) was administered. Subsequently, […] was administered 4 times at a regular interval of 5 days, whereas SPD and SPM were administered 8 times at a regular interval of 3 days. Tumor growth curve is shown.
MC38 cells (5×10^5) were intradermally injected on the right flank. Ten days after inoculation, PD-L1 antibody (1-111A; prepared by and stored at the Department of Immunology and Genomic Medicine, Graduate School of Medicine, Kyoto University) (Immunology Letters 84 (2002) 57-62) (2 mg/kg), PD-L1 antibody+SPD (2 mg/kg) or SPD alone was administered to mice. Subsequently, PD-L1 antibody was administered 4 times at a regular interval of 5 days, and SPD was administered 8 times at a regular interval of 3 days. Tumors were measured on every alternate day, and tumor volumes were calculated using the formula for typical ellipsoid, π×(length×breadth×height/6).

In a further experiment the test system is LLC cells. Put plainly: LLC tumor model. The following applies: SPD 4 mg/kg + PD-L1 antibody. It counts as in vivo, C57BL/6 mice. The procedure:
as §1

Experiment [1] relates to draining lymph node CD8+ T cells. As to the kind of experiment: Seahorse OCR/ECAR of draining lymph node CD8+ T cells of treated mice. In kind it is in vivo, C57BL/6 mice. The settings on record: combined therapy compared to PD-1 inhibition alone. As to the method:
FIG. 2-1 a) Treated mice were analyzed for draining lymph nodes and the inside of tumor. Briefly, draining lymph nodes of mice were isolated 13 days after tumor inoculation, and stained with antibodies to CD8 and Sca-1. FACS diagram and percentages of Sca-1^+ cells in CD8^+ T cells are shown. b) CD8^+ T cells in isolated draining lymph nodes were stimulated with CD3/CD28 antibody beads. After 24 hours, cell proliferation was examined by means of ^3H uptake. At the same time, IFN-γ concentration in culture supernatant was measured. c) Tumor from the same mice as described above was treated with collagenase. Then, expression rates of PD-1 and Tim3 in tumor-infiltrating CD8^+ T cells were analyzed. d) Oxygen consumption rate (OCR) and extracellular acidification rate (ECAR) of draining lymph node CD8^+ T cells were measured with a Seahorse analyzer (N=3 wells). For statistical analysis, ANOVA was used. * p<0.05, ** p<0.01, *** p<0.001, **** p<0.0001.
Oxygen consumption rates were measured using an XF96 Extracellular Flux Analyzer (Seahorse Bioscience). CD8^+ T cells (4×10^5) per well were seeded in a determined XF96 plate. The four chemical modulators of mitochondrial oxidative phosphorylation, which came with an XF Cell Mito Stress Test Kit (Seahorse Bioscience), were added to the module sequentially. In brief, basal OCR measurement was performed […] sequential addition of oligomycin, FCCP, and rotenone/antimycin A. SRC and ATP production rates were calculated by the following formulas:
SRC (pmo; 02/min)=OCRmaximal−OCRbasal
mitoATP (pmol ATP/min)=(OCRbasal−OCRoligo)×5.5.

“Also recorded” adds a separate entry of the source.

As for `NCCCCNCCCN` [SPD, spermidine], the “effect of SPD for enhancing the antitumor immunity of PD-1 inhibition” value with MethA or CT26 cells was “confirmed”. In addition, the “antitumor effect of the PD-1 inhibitory antibody” value with MC38 cells (SPD (2 mg/kg) in combination with PD-L1 antibody (2 mg/kg), MC38 in C57BL/6 mice) is listed as “synergistically improved; also recorded: greatly enhanced”. Also, in the experiment on MC38 cells (spermidine alone, in living bodies), the antitumor effect result is “no antitumor effect”. The “antitumor effect of PD-1 inhibitory antibody with SPD” value with LLC cells is on record as “exhibit the antitumor effect”. In addition, in experiment [1], the “glycolysis (ECAR) of CD8+ T cells” value was “increased”, the “oxygen consumption (OCR) of CD8+ T cells” value is reported as “increased” and the “spare respiratory capacity (SRC) of CD8+ T cells” value was “increased”.

Source of the values: patent US20220401385A1, “Combination Therapy Based on PD-1 Signaling Inhibitors” (Kyoto University, priority 2019, published 2022).
